The CheMixHub viscosity set
Several values for one entry are separate records, joined by “and”; a condition that tells them apart may be missing. Identical values can stand only once. ± gives the uncertainty stated by the source.

Test: xn = mol fraction of the nth substance listed

SMILES: C1COCCO1 + O
- viscosity (303.15 K, 101.3 kPa, x2 = 0.2053): 1.163 ± 0.019 mPa·s
- viscosity (303.15 K, 101.3 kPa, x2 = 0.3758): 1.322 ± 0.021 mPa·s and 1.321 ± 0.021 mPa·s
- viscosity (303.15 K, 101.3 kPa, x2 = 0.7952): 1.738 ± 0.028 mPa·s
- viscosity (303.15 K, 101.3 kPa, x2 = 0.8661): 1.58 ± 0.025 mPa·s and 1.579 ± 0.025 mPa·s
- viscosity (303.15 K, 101.3 kPa, x2 = 0.9391): 1.221 ± 0.02 mPa·s
- viscosity (303.15 K, 101.3 kPa, x2 = 0.9742): 0.9855 ± 0.016 mPa·s and 0.9853 ± 0.016 mPa·s
- viscosity (303.15 K, 101.33 kPa, x1 = 0.0222): 0.959 ± 0.0096 mPa·s
- viscosity (303.15 K, 101.33 kPa, x1 = 0.0486): 1.137 ± 0.011 mPa·s
- viscosity (303.15 K, 101.33 kPa, x1 = 0.0806): 1.332 ± 0.013 mPa·s
- viscosity (303.15 K, 101.33 kPa, x1 = 0.12): 1.521 ± 0.015 mPa·s
- viscosity (303.15 K, 101.33 kPa, x1 = 0.143): 1.608 ± 0.016 mPa·s
- viscosity (303.15 K, 101.33 kPa, x1 = 0.17): 1.674 ± 0.017 mPa·s
- viscosity (303.15 K, 101.33 kPa, x1 = 0.2): 1.726 ± 0.017 mPa·s
- viscosity (303.15 K, 101.33 kPa, x1 = 0.235): 1.75 ± 0.017 mPa·s
- viscosity (303.15 K, 101.33 kPa, x1 = 0.25): 1.749 ± 0.017 mPa·s
- viscosity (303.15 K, 101.33 kPa, x1 = 0.275): 1.74 ± 0.017 mPa·s
- viscosity (303.15 K, 101.33 kPa, x1 = 0.323): 1.704 ± 0.017 mPa·s
- viscosity (303.15 K, 101.33 kPa, x1 = 0.334): 1.685 ± 0.017 mPa·s
- viscosity (303.15 K, 101.33 kPa, x1 = 0.38): 1.634 ± 0.016 mPa·s
- viscosity (303.15 K, 101.33 kPa, x1 = 0.45): 1.538 ± 0.015 mPa·s
- viscosity (303.15 K, 101.33 kPa, x1 = 0.5): 1.46 ± 0.015 mPa·s
- viscosity (303.15 K, 101.33 kPa, x1 = 0.537): 1.417 ± 0.014 mPa·s
- viscosity (303.15 K, 101.33 kPa, x1 = 0.648): 1.282 ± 0.013 mPa·s
- viscosity (303.15 K, 101.33 kPa, x1 = 0.716): 1.215 ± 0.012 mPa·s
- viscosity (303.15 K, 101.33 kPa, x1 = 0.795): 1.153 ± 0.012 mPa·s
- viscosity (303.15 K, 101.33 kPa, x1 = 0.846): 1.125 ± 0.011 mPa·s
- viscosity (303.15 K, 101.33 kPa, x1 = 0.918): 1.098 ± 0.011 mPa·s
- viscosity (308.15 K, 101.33 kPa, x1 = 0.0222): 0.859 ± 0.0086 mPa·s
- viscosity (308.15 K, 101.33 kPa, x1 = 0.0486): 1.014 ± 0.01 mPa·s
- viscosity (308.15 K, 101.33 kPa, x1 = 0.0806): 1.184 ± 0.012 mPa·s
- viscosity (308.15 K, 101.33 kPa, x1 = 0.12): 1.349 ± 0.013 mPa·s
- viscosity (308.15 K, 101.33 kPa, x1 = 0.143): 1.419 ± 0.014 mPa·s
- viscosity (308.15 K, 101.33 kPa, x1 = 0.17): 1.479 ± 0.015 mPa·s
- viscosity (308.15 K, 101.33 kPa, x1 = 0.2): 1.525 ± 0.015 mPa·s
- viscosity (308.15 K, 101.33 kPa, x1 = 0.235): 1.549 ± 0.015 mPa·s
- viscosity (308.15 K, 101.33 kPa, x1 = 0.25): 1.553 ± 0.016 mPa·s
- viscosity (308.15 K, 101.33 kPa, x1 = 0.275): 1.546 ± 0.015 mPa·s
- viscosity (308.15 K, 101.33 kPa, x1 = 0.323): 1.518 ± 0.015 mPa·s
- viscosity (308.15 K, 101.33 kPa, x1 = 0.334): 1.503 ± 0.015 mPa·s
- viscosity (308.15 K, 101.33 kPa, x1 = 0.38): 1.46 ± 0.015 mPa·s
- viscosity (308.15 K, 101.33 kPa, x1 = 0.45): 1.38 ± 0.014 mPa·s
- viscosity (308.15 K, 101.33 kPa, x1 = 0.5): 1.317 ± 0.013 mPa·s
- viscosity (308.15 K, 101.33 kPa, x1 = 0.537): 1.282 ± 0.013 mPa·s
- viscosity (308.15 K, 101.33 kPa, x1 = 0.648): 1.17 ± 0.012 mPa·s
- viscosity (308.15 K, 101.33 kPa, x1 = 0.716): 1.112 ± 0.011 mPa·s
- viscosity (308.15 K, 101.33 kPa, x1 = 0.795): 1.06 ± 0.011 mPa·s
- viscosity (308.15 K, 101.33 kPa, x1 = 0.846): 1.036 ± 0.01 mPa·s
- viscosity (308.15 K, 101.33 kPa, x1 = 0.918): 1.017 ± 0.01 mPa·s
- viscosity (313.1 K, 101 kPa, x2 = 0.228): 0.97 ± 0.015 mPa·s
- viscosity (313.1 K, 101 kPa, x2 = 0.2741): 0.989 ± 0.015 mPa·s
- viscosity (313.1 K, 101 kPa, x2 = 0.4187): 1.047 ± 0.016 mPa·s
- viscosity (313.1 K, 101 kPa, x2 = 0.7038): 1.368 ± 0.02 mPa·s
- viscosity (313.1 K, 101 kPa, x2 = 0.8099): 1.376 ± 0.02 mPa·s
- viscosity (313.1 K, 101 kPa, x2 = 0.8346): 1.32 ± 0.02 mPa·s
- viscosity (313.1 K, 101 kPa, x2 = 0.8791): 1.229 ± 0.018 mPa·s
- viscosity (313.1 K, 101 kPa, x2 = 0.9194): 1.083 ± 0.017 mPa·s
- viscosity (313.1 K, 101 kPa, x2 = 0.9508): 0.937 ± 0.015 mPa·s
- viscosity (313.1 K, 101 kPa, x2 = 0.9786): 0.786 ± 0.013 mPa·s
- viscosity (313.15 K, 101.3 kPa, x2 = 0.0459): 0.9391 ± 0.015 mPa·s
- viscosity (313.15 K, 101.3 kPa, x2 = 0.09407): 0.9443 ± 0.015 mPa·s
- viscosity (313.15 K, 101.3 kPa, x2 = 0.2053): 0.9839 ± 0.016 mPa·s
- viscosity (313.15 K, 101.3 kPa, x2 = 0.3758): 1.1 ± 0.018 mPa·s
- viscosity (313.15 K, 101.3 kPa, x2 = 0.7952): 1.377 ± 0.022 mPa·s
- viscosity (313.15 K, 101.33 kPa, x1 = 0.0222): 0.776 ± 0.0078 mPa·s
- viscosity (313.15 K, 101.33 kPa, x1 = 0.0486): 0.914 ± 0.0091 mPa·s
- viscosity (313.15 K, 101.33 kPa, x1 = 0.0806): 1.061 ± 0.011 mPa·s
- viscosity (313.15 K, 101.33 kPa, x1 = 0.12): 1.199 ± 0.012 mPa·s
- viscosity (313.15 K, 101.33 kPa, x1 = 0.143): 1.265 ± 0.013 mPa·s
- viscosity (313.15 K, 101.33 kPa, x1 = 0.17): 1.322 ± 0.013 mPa·s
- viscosity (313.15 K, 101.33 kPa, x1 = 0.2): 1.365 ± 0.014 mPa·s
- viscosity (313.15 K, 101.33 kPa, x1 = 0.235): 1.386 ± 0.014 mPa·s
- viscosity (313.15 K, 101.33 kPa, x1 = 0.25): 1.383 ± 0.014 mPa·s
- viscosity (313.15 K, 101.33 kPa, x1 = 0.275): 1.384 ± 0.014 mPa·s
- viscosity (313.15 K, 101.33 kPa, x1 = 0.323): 1.366 ± 0.014 mPa·s
- viscosity (313.15 K, 101.33 kPa, x1 = 0.334): 1.352 ± 0.014 mPa·s
- viscosity (313.15 K, 101.33 kPa, x1 = 0.38): 1.316 ± 0.013 mPa·s
- viscosity (313.15 K, 101.33 kPa, x1 = 0.45): 1.249 ± 0.012 mPa·s
- viscosity (323.1 K, 101 kPa, x2 = 0.228): 0.836 ± 0.013 mPa·s
- viscosity (323.1 K, 101 kPa, x2 = 0.2741): 0.85 ± 0.013 mPa·s
- viscosity (323.1 K, 101 kPa, x2 = 0.4187): 0.888 ± 0.014 mPa·s
- viscosity (323.1 K, 101 kPa, x2 = 0.591): 1.063 ± 0.016 mPa·s
- viscosity (323.1 K, 101 kPa, x2 = 0.7038): 1.123 ± 0.017 mPa·s
- viscosity (323.1 K, 101 kPa, x2 = 0.8099): 1.122 ± 0.017 mPa·s
- viscosity (323.1 K, 101 kPa, x2 = 0.8346): 1.078 ± 0.016 mPa·s
- viscosity (323.1 K, 101 kPa, x2 = 0.8791): 1.006 ± 0.015 mPa·s
- viscosity (323.1 K, 101 kPa, x2 = 0.9194): 0.889 ± 0.014 mPa·s
- viscosity (323.1 K, 101 kPa, x2 = 0.9508): 0.774 ± 0.013 mPa·s
- viscosity (323.1 K, 101 kPa, x2 = 0.9786): 0.652 ± 0.011 mPa·s
